Measured values reported in patent US20160022751A1, “NOVEL COMPOSITION FOR TREATING ALZHEIMER'S DISEASE AND IMPROVING COGNITIVE FUNCTION OF ALZHEIMER'S PATIENTS” (GANGNEUNG-WONJU NATIONAL UNIVERSITY INDUSTRY ACADEMY …, priority 2014, published 2016).

Assays:
caveolin1 = assay: Caveolin1 mRNA expression in HMO6 human microglial cells (qPCR); format: cell-based; conditions: Aβ42 (5 μM) and/or Rg3 (2.5 or 5 μg/ml), 24 h (FIG. 15A-B)
Method: FIG. 15 is a graph showing a change in the expression of caveolin-1, caveolin-2, clathrin, neprilysin (NEP), insulin-degrading enzyme (IDE) according to treating Aβ and/or ginsenoside Rg3 to HMO6 human microglial cells. HMO6 cells were plated on 35 mm cell culture plates or chamber slides and Aβ42 (5 μM) and/or Rg3 (2.5 or 5 μg/ml) were treated for 24 h. Then, the mRNA expression was determined by quantitative RT-PCR. The expression of caveolin (A-B), clathrin (C) which are endocytosis-related genes and NEP (D) and IDE (E) which are genes encoding Aβ-degrading enzymes were compared depending on the presence or absence of Rg3/Aβ42. The results are shown as mean±SD. * P<0.05, ** P<0.01, *** P<0.001. […]
(§1) Total RNA extracts from HMO6 cells or perfused brain tissue were prepared using the Trizol method (Invitrogen). cDNA was synthesized from RNA by reverse transcription of 1 μg total RNA using the Improm-II reverse transcription system (Promega, Wis., USA) and oligo dT primers in a total volume of 20 μl. […] Relative sample expression levels were calculated using Rotor-Gene 6000 Series Software 1.7 and were expressed relative to β-actin for mice or glyceraldehyde 3-phosphate dehydrogenase for HMO6 cells and corrected for between-run variability. Data for the experimental samples are expressed as a percentage of the internal control gene. […]

SRA [1] = assay: SRA mRNA expression in HMO6 human microglial cells (qPCR); format: cell-based; conditions: Rg3-treated HMO6 cells (FIG. 14)
Method: HMO6 human microglial cell line was kindly provided by Dr. SU Kim (Chung-Ang University, Korea). HMO6 cells were grown in Dulbecco's Modified Eagle's Medium (DMEM) (Hyclone, USA) supplemented with 10% fetal bovine serum, 100 U/ml penicillin, and 100 μg/ml streptomycin (Invitrogen, USA). Cultures were maintained under 5% CO2 at 37° C. in tissue culture flasks. Cells were grown to >90% confluency and subjected to no more than 20 cell passages. Medium was changed every 2-3 days. Subconfluent cells were harvested and seeded at a density of 5×10^5 cells or 5×10^6 cells in poly-L-lysine-coated 35-mm or 60-mm culture plates. […]
as §1

HMO6 cells = assay: Uptake of FITC-labeled Aβ42 in HMO6 cells (live-cell imaging); format: cell-based, human; conditions: HMO6 cells pre-treated with Rg3 5 μg/ml for 20 h, after 30 min, persisted for 6 h (FIG. 21)
Method: The stably transfected HM06.hSRA cells prepared in Example 5-5 were plated into 96-well plates at 5000 cells/well to analyze Aβ uptake. […] […] Fluorescence intensities represented the number of cells (count/mm^2) over the time to quantify cells with FITC-labeled Aβ42 peptides. Aβ42 uptake was calculated using the following equation (FIG. 21):

SRA [2] = assay: In vivo SRA protein expression in brain tissues (western blot); conditions: mice administrated with Rg3 (FIG. 24B)
Text: HMO6 cells were lysed in 1% RIPA buffer containing protease and phosphatase inhibitors (Roche, Mannheim, Germany) and whole-cell lysates were separated on 10% sodium dodecyl sulfate-polyacrylamide gel electrophoresis. After electrophoresis, the proteins were transferred to polyvinylidene fluoride membranes, and the membranes were blocked with 5% skim milk in Tris-buffered saline solution containing 0.1% Tween-20. The membranes were then immunoblotted with primary antibodies, anti-phospho-p38, anti-p38, anti-phospho-ERK, anti-ERK, and anti-f3-actin (Santa Cruz Biotechnology, USA), followed by incubation with horseradish peroxidase-conjugated anti-rabbit or anti-mouse secondary antibodies (Stressgen, USA). Blots were developed using an enhanced chemiluminescent solution (Thermo, USA).
The present inventor investigated whether ginsenoside Rg3 translocated to brain tissues contributes to the uptake and degradation of Aβ42 in order to determine whether in vitro experimental results described in the Example 5 can be applied to in vivo condition in the same manner. Specifically, the expression level of SRA and SRB gene within brain tissues of mice administrated with Rg3 was determined using the RT-PCR analysis described in the Example 5-4 (FIG. 24A) and the western blot analysis described in the Example 5-6 (FIG. 24B). […]

SMILES: CC(C)=CCC[C@](C)(O)[C@H]1CC[C@]2(C)[C@@H]1[C@H](O)C[C@@H]1[C@@]3(C)CC[C@H](O[C@@H]4O[C@H](CO)[C@@H](O)[C@H](O)[C@H]4O[C@@H]4O[C@H](CO)[C@@H](O)[C@H](O)[C@H]4O)C(C)(C)[C@@H]3CC[C@]12C [ginsenoside Rg3]
- caveolin1-mediated Aβ42 endocytosis (caveolin mRNA) (caveolin1): promoted Aβ42 uptake into HMO6 cells via a caveolin1 and clathrin-mediated endocytic mechanism
- SRA mRNA expression (SRA [1]): dose-dependently increased
- Aβ42 uptake (HMO6 cells): increased Aβ42 uptake significantly
- expression of SRA protein in brain tissues (SRA [2]): increased
